Laboratory results: ChEMBL document CHEMBL1201862, “PubChem BioAssay data set” (2004)
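Briefly, cells in 96-well plates were exposed to five compound concentrations for 48 h, and endpoints were estimated by linear interpolation. GI50 is the concentration that inhibits growth by half.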 The source made the active and inactive calls. No stated cut-off is given here; in the data, active = GI50 up to about 1.1 µM and inactive = higher.

Tests used:
Test in all cases: growth of human tumour cells (NCI), 48 h
NCI/ADR-RES = system: NCI/ADR-RES
786-0 = system: 786-0
HL-60 = system: HL-60
UACC-62 = system: UACC-62
M14 = system: M14
MCF7 = system: MCF7
OVCAR-3 = system: OVCAR-3
RPMI-8226 = system: RPMI-8226
Malme-3M = system: Malme-3M
SNB-19 = system: SNB-19
SR = system: SR
TK-10 = system: TK-10
IGROV-1 = system: IGROV-1
UO-31 = system: UO-31
HOP-62 = system: HOP-62
SK-OV-3 = system: SK-OV-3
NCI-H460 = system: NCI-H460
COLO 205 = system: COLO 205
HT-29 = system: HT-29
CCRF-CEM = system: CCRF-CEM

Measured: GI50

COP(=O)(OC)c1ccc(NCc2cc(O)ccc2O)cc1
inactive: NCI/ADR-RES 31 µM | 786-0 25.2 µM | HL-60 21.4 µM | UACC-62 19.5 µM | M14 13.8 µM | MCF7 28.8 µM | OVCAR-3 6.34 µM | RPMI-8226 19.5 µM | Malme-3M 18.9 µM | SNB-19 37.8 µM | SR 14.3 µM | TK-10 23.4 µM | IGROV-1 30.3 µM | UO-31 15.5 µM | HOP-62 35.8 µM | SK-OV-3 > 100 µM | NCI-H460 22.1 µM | COLO 205 27.7 µM | HT-29 24.8 µM | CCRF-CEM 18.8 µM

CCOC(=O)/C=C(\C(=O)OCC)n1ccc(N)nc1=O
inactive: NCI/ADR-RES > 100 µM | 786-0 > 100 µM | HL-60 26.6 µM | UACC-62 > 100 µM | M14 > 100 µM | MCF7 > 100 µM | OVCAR-3 > 100 µM | RPMI-8226 > 100 µM | Malme-3M 45.7 µM | SNB-19 > 100 µM | SR 87.7 µM | TK-10 > 100 µM | IGROV-1 > 100 µM | UO-31 > 100 µM | HOP-62 > 100 µM | SK-OV-3 > 100 µM | NCI-H460 > 100 µM | COLO 205 > 100 µM | HT-29 52.2 µM | CCRF-CEM 22.4 µM

CC(=O)c1cc(CC2Cc3cc4c(cc3C2=O)CCC4)cc2c1CCC2 (stereo not given)
inactive: NCI/ADR-RES 26.2 µM | 786-0 80 µM | HL-60 8.65 µM | UACC-62 > 100 µM | M14 69.7 µM | MCF7 30.8 µM | OVCAR-3 90.2 µM | RPMI-8226 10.7 µM | Malme-3M 33 µM | SNB-19 78 µM | SR 29.9 µM | TK-10 38.5 µM | IGROV-1 > 100 µM | UO-31 49.5 µM | HOP-62 > 100 µM | SK-OV-3 62.2 µM | NCI-H460 36 µM | COLO 205 24.8 µM | HT-29 48.2 µM | CCRF-CEM 24 µM
